Results taken from the SangsterLogP compilation.

logP | Structure (SMILES)
2.21 | Nc1ccc(-c2nc3ccc([N+](=O)[O-])cc3s2)cc1
4.86 | CNc1ccc(-c2nc3ccc(Br)cc3s2)cc1I
3.03 | COCOc1ccc2nc(-c3ccc(N)c(I)c3)sc2c1
3.9 | CNc1ccc(-c2nc3ccccc3s2)cc1I
4.08 | CNc1ccc(-c2nc3ccc([N+](=O)[O-])cc3s2)cc1I
2.49 | COc1ccc(-c2nc3ccc(O)c(I)c3s2)cc1
1.87 | COc1ccc2nc(-c3ccc(N)cc3)sc2c1
2.87 | Nc1ccc(-c2nc3ccc(Br)cc3s2)cc1
1.8 | COc1ccc2nc(-c3ccc(O)cc3)sc2c1
3.64 | CNc1ccc(-c2nc3ccc(Br)cc3s2)cc1
1.65 | Nc1ccc(-c2nc3ccc(O)cc3s2)cc1I
2.58 | CNc1ccc(-c2nc3ccc(OC)cc3s2)cc1
2.22 | Oc1ccc(-c2nc3ccccc3s2)cc1I
3.29 | COC(=O)c1ccc2nc(-c3ccc(N)c(I)c3)sc2c1
4.11 | Nc1ccc(-c2nc3ccc(Br)cc3s2)cc1I
2.31 | COc1ccc2nc(-c3ccc(O)c(I)c3)sc2c1
2.95 | COc1ccc(-c2nc3ccc(N)c(I)c3s2)cc1
2.07 | COC(=O)c1ccc2nc(-c3ccc(N)cc3)sc2c1

The next lines start with the compound.

Structure (SMILES) | logP
Nc1ccc2nc(-c3ccc(O)cc3)sc2c1I | 1.6
Oc1ccc(-c2nc3ccccc3s2)cc1 | 1.86
Nc1ccc(-c2nc3ccccc3s2)cc1 | 1.98
Oc1ccc(-c2nc3ccc(O)c(I)c3s2)cc1 | 1.01
CNc1ccc(-c2nc3ccc([N+](=O)[O-])cc3s2)cc1 | 2.96
Oc1ccc2nc(-c3ccc(O)c(I)c3)sc2c1 | 1.09
Nc1ccc(-c2nc3ccccc3s2)cc1I | 3.17
COc1ccc(-c2nc3ccc(O)cc3s2)cc1 | 1.75
Nc1ccc(-c2nc3ccc([N+](=O)[O-])cc3s2)cc1I | 3.33
COc1ccc(-c2nc3ccc(N)cc3s2)cc1 | 1.76
COc1ccc2nc(-c3ccc(N)c(I)c3)sc2c1 | 3.08
CNc1ccc(-c2nc3ccc(OC)cc3s2)cc1I | 3.8
CNc1ccc(-c2nc3ccc(O)cc3s2)cc1I | 2.35
COCOc1ccc2nc(-c3ccc(N)cc3)sc2c1 | 1.86
